Reference: PubChem BioAssay AID651650 (Sanford-Burnham Center for Chemical Genomics, 2012)
Active and inactive are the calls of the source.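 The calls were made as follows: active = mean IC50 below 20 µM in each of the two panels, so potent in both; inactive = the rest.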

Target: Neuropilin-1 (Homo sapiens) (UniProt O14786)
Assay: blockers of CendR peptide binding to NRP-1 – biochemical, FP and AlphaScreen panel, dose response (AID 651650)
Settings: NRP-1 b1b2 / RPARPAR peptide binding, FP or AlphaScreen
[1] = AlphaScreen, run 1, individual panel run IC50
[2] = FP, run 1, individual panel run IC50
[3] = FP, run 2, individual panel run IC50

Sequence of Neuropilin-1 (Homo sapiens) (O14786 whole entry, looked up): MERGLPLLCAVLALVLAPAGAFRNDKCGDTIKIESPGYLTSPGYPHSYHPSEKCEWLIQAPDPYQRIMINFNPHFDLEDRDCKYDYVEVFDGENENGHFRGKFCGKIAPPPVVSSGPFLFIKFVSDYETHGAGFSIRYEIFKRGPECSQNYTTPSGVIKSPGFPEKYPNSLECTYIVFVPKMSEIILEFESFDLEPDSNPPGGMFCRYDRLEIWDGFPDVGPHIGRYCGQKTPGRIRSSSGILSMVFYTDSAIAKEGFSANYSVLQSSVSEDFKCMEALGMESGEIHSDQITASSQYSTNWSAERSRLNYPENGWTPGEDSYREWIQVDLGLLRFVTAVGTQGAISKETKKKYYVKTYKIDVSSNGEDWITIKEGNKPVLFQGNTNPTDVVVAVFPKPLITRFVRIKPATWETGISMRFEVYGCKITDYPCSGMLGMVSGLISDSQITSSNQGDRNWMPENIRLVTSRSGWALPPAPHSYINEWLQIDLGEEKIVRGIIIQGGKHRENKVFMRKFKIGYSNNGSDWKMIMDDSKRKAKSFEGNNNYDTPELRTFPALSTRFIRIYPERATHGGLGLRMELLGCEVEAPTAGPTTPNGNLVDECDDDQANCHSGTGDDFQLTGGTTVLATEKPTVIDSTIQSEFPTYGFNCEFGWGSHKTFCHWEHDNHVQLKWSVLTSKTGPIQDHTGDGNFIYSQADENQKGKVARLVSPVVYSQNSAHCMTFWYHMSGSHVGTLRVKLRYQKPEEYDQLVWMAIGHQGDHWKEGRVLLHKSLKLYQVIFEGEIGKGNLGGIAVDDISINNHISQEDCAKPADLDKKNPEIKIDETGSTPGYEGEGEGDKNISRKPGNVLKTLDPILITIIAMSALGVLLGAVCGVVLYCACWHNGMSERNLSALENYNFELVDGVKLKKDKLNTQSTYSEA

Row | SMILES | IC50 (AlphaScreen, mean of runs) | IC50 [1] | IC50 (FP, mean of runs) | IC50 [2] | IC50 [3]
1 | COC(=O)c1c(NC(=O)CN(c2ccccc2)S(C)(=O)=O)sc2c1CCCC2 | 15.5 µM | 15.5 µM | > 95 µM (inactive) | > 95 µM | > 95 µM
2 | Cc1csc(NC(C)c2nc3cc(C(F)(F)F)ccc3n2CCCO)n1 (stereo not given) | 8.6 µM | 8.6 µM | > 95 µM (inactive) | > 95 µM | > 95 µM
3 | Cc1ccc(NC(=O)COc2ncnc3c(Cl)cc(Cl)cc23)cc1[N+](=O)[O-] | > 100 µM (inactive) | > 100 µM | > 95 µM (inactive) | > 95 µM | > 95 µM
4 | O=C(CCc1ccc(Oc2cc([N+](=O)[O-])cc([N+](=O)[O-])c2)cc1)N1CCCCCC1 | 11.6 µM | 11.6 µM | > 95 µM (inactive) | > 95 µM | > 95 µM
5 | COc1ccc(Cl)cc1S(=O)(=O)N1CCN(CC(=O)C(C)(C)C)CC1 | > 100 µM (inactive) | > 100 µM | > 95 µM (inactive) | > 95 µM | > 95 µM
6 | OCC[C@H]1C[C@H](O)[C@@H](O)[C@]2(CCCCO2)O1 | > 100 µM (inactive) | > 100 µM | > 95 µM (inactive) | > 95 µM | > 95 µM
7 | CCn1ncc(Br)c1C(=O)N(C)C12CC3CC(CC(C3)C1)C2 | > 100 µM (inactive) | > 100 µM | > 95 µM (inactive) | > 95 µM | > 95 µM
8 | Cc1ccnc(N2CCC(C(=O)Nc3ccc4c(c3)OCCO4)CC2)n1 | > 100 µM (inactive) | > 100 µM | > 95 µM (inactive) | > 95 µM | > 95 µM
9 | NS(=O)(=O)c1ccc(CNC(=S)NCc2ccc(F)cc2)cc1 | > 100 µM (inactive) | > 100 µM | > 95 µM (inactive) | > 95 µM | > 95 µM
10 | CCCCCc1c(-c2cccc(Cl)c2)ncn1CCc1ccccc1OC | > 100 µM (inactive) | > 100 µM | > 95 µM (inactive) | > 95 µM | > 95 µM
11 | COc1ccc(C(=O)COC(=O)C(CCSC)NS(=O)(=O)c2ccc(Cl)cc2)cc1 (stereo not given) | > 100 µM (inactive) | > 100 µM | > 95 µM (inactive) | > 95 µM | > 95 µM
12 | O=C(CSc1nnc(Cc2ccccc2)n1Cc1ccccc1)NCc1ccco1 | > 100 µM (inactive) | > 100 µM | > 95 µM (inactive) | > 95 µM | > 95 µM
13 | O=C(NCc1ccccc1)C(c1cccnc1)N(C(=O)c1ccccn1)c1ccccc1F (stereo not given) | > 100 µM (inactive) | > 100 µM | > 95 µM (inactive) | > 95 µM | > 95 µM
14 | COc1ccc(/C=N/NC(=O)c2ccccc2Cl)cc1CSc1nc2ccccc2s1 | > 100 µM (inactive) | > 100 µM | > 95 µM (inactive) | > 95 µM | > 95 µM
15 | O=C(CSC1CN(C(c2ccccc2)c2ccccc2)C1)N/N=C/c1ccccc1 | 5.56 µM | 5.56 µM | > 95 µM (inactive) | > 95 µM | > 95 µM
16 | COC(=O)C1=C(c2cccc(C#N)c2)C[C@@H]2CC[C@H]1N2C(=O)NCCO | > 100 µM (inactive) | > 100 µM | > 95 µM (inactive) | > 95 µM | > 95 µM
17 | NC1=NC[C@@H](Cc2ccc(O)cc2)N1CCCCC1CCCCC1 | > 100 µM (inactive) | > 100 µM | > 95 µM (inactive) | > 95 µM | > 95 µM
18 | C=C(C)COc1ccc(-c2[nH]ncc2-c2ccccc2)c(O)c1 | > 100 µM (inactive) | > 100 µM | > 95 µM (inactive) | > 95 µM | > 95 µM
19 | COc1cccc(NC(=O)CSc2nc(O)c(C)c(=O)n2-c2ccc(C)cc2)c1 | > 100 µM (inactive) | > 100 µM | inactive | 20.1 µM | > 95 µM
20 | COC(=O)c1ccccc1NC(=O)CSc1nc(C)cc(C)n1 | > 100 µM (inactive) | > 100 µM | > 95 µM (inactive) | > 95 µM | > 95 µM
21 | CCOC(=O)[C@]12CCCC=C1N(CCC1=CCCCC1)C(=O)[C@H](CC(=O)NCC13CC4CC(CC(C4)C1)C3)C2 | > 100 µM (inactive) | > 100 µM | > 95 µM (inactive) | > 95 µM | > 95 µM
22 | COc1ccc(C2CC(O)(c3ccccc3)Oc3cc(OC)ccc32)cc1 (stereo not given) | > 100 µM (inactive) | > 100 µM | > 95 µM (inactive) | > 95 µM | > 95 µM
23 | CC(CN1CCOCC1)OC(=O)c1ccc2c(c1)OCCO2 (stereo not given) | > 100 µM (inactive) | > 100 µM | > 95 µM (inactive) | > 95 µM | > 95 µM
